Measured values taken from patent US7871999B2, “Substituted thiazoles and their use for producing drugs” (Gruenenthal GmbH, priority 2005, dated 2011).

Legend:
mGluR5 receptor = target: T1, mGluR5 receptor (Sus scrofa, UniProt I3LUI7); experiment: Inhibition of [^3H]-MPEP binding in the mGluR5 receptor binding assay (pig brain homogenate); conditions: 5 nM [^3H]-MPEP
T1 construct: pig brain hemispheres without medulla, cerebellum and pons ... differential centrifugation at 900×g and 40,000×g
Description: I. Method for Determining the Inhibition of [^3H]-MPEP Binding in the mGluR5 Receptor Binding Assay […]
The batches are then filtered with the assistance of a Brandel Cell Harvester (Brandel, Robotic 9600 model) on Unifilter plates with glass filter mats (Perkin Elmer, order number 6005177) and then washed 3 times with buffer (as above) using 250 μl per sample. The filter plates are then dried for 60 min at 55° C. Then 30 μl of Ultima Gold™ scintillating material (Packard BioScience, order number 6013159) is added per well and after 3 hours the samples are measured using the β counter (Microbeta, Perkin Elmer). Nonspecific binding is determined by the addition of 10 μM MPEP (Tocris, order number 1212).

rats = experiment: Formaldehyde test in rats (phase 2, chronic pain component); type: in vivo; conditions: rat
Description: III. Formaldehyde Test in Rats: The formaldehyde test (Dubuisson, D. and Dennis, S. G., 1977, Pain, 4, 161-174) is a model of both acute and chronic pain. A biphasic nociceptive response is induced in freely mobile test animals by a single formaldehyde injection into the dorsal side of a hind paw, said response being detected by the observation of three clearly distinguishable behaviour patterns. The response is in two phases: phase 1=immediate response (duration up to 10 min; paw shaking, licking), phase 2=late response (after a resting phase; likewise paw shaking, licking; duration up to 60 min). The 1st phase reflects direct stimulation of the peripheral nocisensors with an elevated spinal nociceptive input or glutamate release (acute pain phase); the 2nd phase reflects spinal and peripheral hypersensitisation (chronic pain phase). In the investigations presented here, it was the chronic pain component (phase 2) which was evaluated. […] The specific behavioural changes, such as raising and shaking the paw, changes in weight bearing of the animal and biting and licking responses are observed and recorded over the observation period of 21 to 27 min after the formaldehyde injection. The various behaviours are summarised as a “pain rate” (PR), which is the calculated nociceptive response averaged over 3 min sub-intervals. […]

T1 sequence (I3LUI7 1-1212): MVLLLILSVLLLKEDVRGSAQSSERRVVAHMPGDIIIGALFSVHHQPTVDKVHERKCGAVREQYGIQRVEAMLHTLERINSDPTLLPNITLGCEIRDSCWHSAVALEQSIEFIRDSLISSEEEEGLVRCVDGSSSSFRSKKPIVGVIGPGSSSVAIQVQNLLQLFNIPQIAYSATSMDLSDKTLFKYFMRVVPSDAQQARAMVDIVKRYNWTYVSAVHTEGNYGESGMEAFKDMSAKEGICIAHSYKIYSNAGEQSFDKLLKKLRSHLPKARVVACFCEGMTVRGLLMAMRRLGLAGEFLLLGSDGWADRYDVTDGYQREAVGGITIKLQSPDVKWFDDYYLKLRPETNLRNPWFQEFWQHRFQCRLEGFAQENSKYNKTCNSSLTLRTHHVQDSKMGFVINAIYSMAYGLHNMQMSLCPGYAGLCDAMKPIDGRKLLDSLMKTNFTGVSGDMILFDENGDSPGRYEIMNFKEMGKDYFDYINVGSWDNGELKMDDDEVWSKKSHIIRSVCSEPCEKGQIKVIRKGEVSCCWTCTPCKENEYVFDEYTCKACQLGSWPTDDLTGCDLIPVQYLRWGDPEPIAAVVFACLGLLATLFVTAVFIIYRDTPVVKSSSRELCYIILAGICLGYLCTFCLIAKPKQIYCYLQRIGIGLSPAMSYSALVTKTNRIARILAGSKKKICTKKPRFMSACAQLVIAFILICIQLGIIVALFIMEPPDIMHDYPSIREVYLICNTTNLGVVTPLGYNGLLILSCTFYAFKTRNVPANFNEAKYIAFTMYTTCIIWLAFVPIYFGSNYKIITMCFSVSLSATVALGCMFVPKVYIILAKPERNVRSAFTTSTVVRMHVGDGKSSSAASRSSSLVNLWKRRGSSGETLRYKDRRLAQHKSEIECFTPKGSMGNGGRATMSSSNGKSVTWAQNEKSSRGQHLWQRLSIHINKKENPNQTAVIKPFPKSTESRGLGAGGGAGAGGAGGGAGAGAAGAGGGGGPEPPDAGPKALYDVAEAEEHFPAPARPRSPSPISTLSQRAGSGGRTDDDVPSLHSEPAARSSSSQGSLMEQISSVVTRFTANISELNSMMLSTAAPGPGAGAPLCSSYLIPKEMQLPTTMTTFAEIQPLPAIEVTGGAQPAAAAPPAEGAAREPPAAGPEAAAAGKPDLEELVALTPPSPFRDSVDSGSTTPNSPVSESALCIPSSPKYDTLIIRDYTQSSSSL

IC50 (mGluR5 receptor): 5.6 nM
SMILES: CN(CCNC(=O)C#Cc1cccc(Cl)c1)c1nccs1.Cl [Example 23, N-(2-(Methyl(thiazol-2-yl)amino)ethyl)-3-(3-chlorophenyl)-propiolamide hydrochloride]
ED50 (rats; iv, i.v. administration): 1 mg/kg | inhibition in the formaldehyde test (rats; oral administration of 10 mg/kg): 38%
